Assay results taken from patent US6506580B1, “Splice variants for human 5-HT4 serotonin receptor and their applications, in particular for screening” (Institut National de la Sante et de la Recherche Medicale …, priority 1997, dated 2003).

Legend:
receptor 5-HT4(a) [1] = molecular target: T1, receptor 5-HT4(a) (Homo sapiens, UniProt Q13639); assay: [3H]GR113808 radioligand binding, membranes of transiently transfected COS-7 cells; conditions: read-out: Ki, competition for [3H]GR113808 binding
T1 construct: The entire coding region of the cDNAs of 5-HT4(a), 5-HT4(b), 5-HT4(c) and 5-T4(d) was subcloned; expressed in transfected cells; host or cells: COS-7 cells, transient, pRC/CMV vector
T1 sequence (Q13639 1-387 isoform Q13639-2): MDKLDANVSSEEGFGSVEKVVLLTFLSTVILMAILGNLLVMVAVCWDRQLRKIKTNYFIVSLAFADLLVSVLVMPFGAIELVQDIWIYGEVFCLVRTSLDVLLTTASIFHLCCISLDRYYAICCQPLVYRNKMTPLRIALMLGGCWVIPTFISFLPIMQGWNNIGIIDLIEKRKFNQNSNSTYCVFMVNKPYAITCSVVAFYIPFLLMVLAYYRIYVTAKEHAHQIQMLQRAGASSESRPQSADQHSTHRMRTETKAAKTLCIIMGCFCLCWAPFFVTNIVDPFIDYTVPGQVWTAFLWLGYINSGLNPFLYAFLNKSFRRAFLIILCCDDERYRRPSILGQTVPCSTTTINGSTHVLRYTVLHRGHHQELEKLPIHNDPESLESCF
Protocol: (§1) The entire coding region of the cDNAs of 5-HT4(a), 5-HT4(b), 5-HT4(c) and 5-T4(d) was subcloned into a mammalian expression vector pRC/CMV (Invitrogen, Carlsbad, Calif.). The transfections were carried out using polyethyleneimine (PEI) as described in Boussif et al. (1995). The cells were transfected using a mixture of DNA and of PEI in a ratio of 20 μmol of PEI/mg of DNA in 0.9% NaCl. For the radioligand binding assays, the COS-7 cells were seeded into culture flasks of 1.5×10^4 mm^2 one day before the transfection, at a density of 1×10^7 cells/flask, incubated for six hours with plasmid DNA (150 μg/flask) and collected 48 hours after transfection. For the measurement of cAMP formation, the COS-7 cells were seeded onto twelve-well plates one day before transfection, at a density of 5×10^5 cells/well, incubated for six hours with plasmid DNA (4 to 8 μg/well according to the experiments) and assayed 24 hours after the transfection. The cells transfected with the receptor 5-HT4 cDNA constructs were compared with the “blank”-transfected cells, which were exposed to the unmodified pRC/CMV plasmid.
(§2) Each flask of cells intended for the radioligand binding assays was washed twice with a phosphate buffer (PBS). The cells were then scraped, collected and centrifuged at 300 g for five minutes. The pellet was resuspended in 2.5 ml of ice-cold HEPES buffer (50 mM, pH 7.4) and homogenized with an Ultraturax tissue grinder. The lysate was then centrifuged at 40,000 g for 20 minutes at 4° C. The resulting pellet was resuspended in 15 volumes of HEPES buffer (50 mM, pH 7.4). The membrane preparations were maintained in ice and used within two hours for radioligand binding assays. The protein concentrations were determined by the method of Lowry et al., 1951, using bovine serum albumin as standard.
(§3) The saturation studies were performed using [^3H] GR113808 at 9 different concentrations ranging from 0.01 to 3.5 nM. The tubes were incubated at 25° C. for 30 minutes. The reaction-was stopped by rapid filtration, under vacuum, through Whatman GF/B filter paper using the Brandel 48R cell harvester. The filters were presoaked in a solution of PEI (0.1%) to reduce the binding to the filters. The filters were then washed with an ice-cold buffer (50 mM Tris-HCl, pH 7.4) and placed in 4 ml of “ready safe” scintillation cocktail (Beckman, Fullerton, Calif.) overnight. The radioactivity was measured using a Beckman LS 6500 C liquid scintillation counter. The binding data were analysed by computer-assisted nonlinear regression analysis (Graph Pad Prism Program, Graph Pad Software, Inc., San Diego, Calif.).
(§4) The experiments correspond to the competition of various compounds for [^3H]GR113808 binding to membranes of transiently transfected COS-7 cells. […] The estimations of affinity are given as Ki values in nM, and are determined from IC50 values obtained by computer-assisted nonlinear curve analysis (GraphPad, Prism Software). The Ki values are representative of at least two determinations.

receptor 5-HT4(b) [2] = molecular target: T2, receptor 5-HT4(b) (Homo sapiens, UniProt Q13639); assay: as above; conditions: read-out: Ki, competition for [3H]GR113808 binding
T2 construct: The entire coding region of the cDNAs of 5-HT4(a), 5-HT4(b), 5-HT4(c) and 5-T4(d) was subcloned; expressed in transfected cells; host or cells: COS-7 cells, transient, pRC/CMV vector; cDNA amplified from human brain and ileum RNA
T2 sequence (Q13639 whole entry): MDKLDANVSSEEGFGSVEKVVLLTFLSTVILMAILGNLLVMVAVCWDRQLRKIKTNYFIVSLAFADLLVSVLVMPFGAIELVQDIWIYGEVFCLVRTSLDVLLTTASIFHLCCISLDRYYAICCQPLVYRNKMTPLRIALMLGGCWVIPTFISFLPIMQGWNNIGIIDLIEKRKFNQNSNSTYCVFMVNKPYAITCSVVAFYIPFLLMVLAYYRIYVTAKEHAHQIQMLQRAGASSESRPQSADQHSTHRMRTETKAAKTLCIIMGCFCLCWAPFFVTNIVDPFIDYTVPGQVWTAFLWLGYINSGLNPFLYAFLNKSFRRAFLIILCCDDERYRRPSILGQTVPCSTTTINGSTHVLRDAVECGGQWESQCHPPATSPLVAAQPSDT
Protocol: as §1, §2, §3, §4

receptor 5-HT4(a) [3] = molecular target: T1, receptor 5-HT4(a); assay: cAMP formation in transiently transfected COS-7 cells; format: cell-based; conditions: COS-7, 1 μM, no agonist
Protocol: as §1
(§5) To measure intracellular cAMP accumulation, the transiently transfected COS-7 cells were incubated, 24 hours after transfection, in Dulbecco's modified Eagle medium (DMEM) containing 5 mM theophylline, 10 mM HEPES and 10 μM pargyline for 15 minutes at 37° C., in the presence of 5% CO2. […] The reaction was stopped by aspiration of the medium and addition of 500 μl of ice-cold ethanol. After one hour at room temperature, the cells were scraped, and everything was collected and freeze-dried. The pellet was resuspended in 350 μl of PBS and centrifuged for 5 min at 300 g. The cAMP was quantified in the supernatant using a radioimmunological assay (E.R.I.A. assay kit from Pasteur Diagnostics 79830). Student's t tests were carried out using the program Quick TEst.

receptor 5-HT4(b) [4] = molecular target: T2, receptor 5-HT4(b); assay: as above; format: cell-based; conditions: COS-7, 1 μM, no agonist
Protocol: as §1, §5

[5] = test system: “blank”-transfected COS-7 cells; assay: cAMP formation in control COS-7 cells; format: cell-based; conditions: 1 μM
Protocol: as §1, §5

[6] = test system: cells expressing the isoforms of the receptor 5-HT4; assay: cAMP formation in transiently transfected COS-7 cells, statement for all isoforms together; format: cell-based, human; conditions: preincubation with 1 μM prior to 5-HT, COS-7 cells expressing the isoforms
Protocol: The entire coding region of the cDNAs of 5-HT4(a), 5-HT4(b), 5-HT4(c) and 5-T4(d) was subcloned into a mammalian expression vector pRC/CMV (Invitrogen, Carlsbad, Calif.). The transfections were carried out using polyethyleneimine (PEI) as described in Boussif et al. (1995). The cells were transfected using a mixture of DNA and of PEI in a ratio of 20 μmol of PEI/mg of DNA in 0.9% NaCl. […] The cells transfected with the receptor 5-HT4 cDNA constructs were compared with the “blank”-transfected cells, which were exposed to the unmodified pRC/CMV plasmid. […] The reaction was stopped by aspiration of the medium and addition of 500 μl of ice-cold ethanol. After one hour at room temperature, the cells were scraped, and everything was collected and freeze-dried. The pellet was resuspended in 350 μl of PBS and centrifuged for 5 min at 300 g. The cAMP was quantified in the supernatant using a radioimmunological assay (E.R.I.A. assay kit from Pasteur Diagnostics 79830). Student's t tests were carried out using the program Quick TEst.

receptor 5-HT4(d) = receptor 5-HT4(d) (Homo sapiens, UniProt Q13639); assay: cAMP formation in transiently transfected COS-7 cells; format: cell-based; design: The entire coding region of the cDNAs of 5-HT4(a), 5-HT4(b), 5-HT4(c) and 5-T4(d) was subcloned; expressed in transfected cells; host or cells: COS-7 cells, transient, pRC/CMV vector; cDNA amplified from human brain and ileum RNA; conditions: COS-7, 1 μM, no agonist
Sequence of receptor 5-HT4(d) (Q13639 1-360 isoform Q13639-3): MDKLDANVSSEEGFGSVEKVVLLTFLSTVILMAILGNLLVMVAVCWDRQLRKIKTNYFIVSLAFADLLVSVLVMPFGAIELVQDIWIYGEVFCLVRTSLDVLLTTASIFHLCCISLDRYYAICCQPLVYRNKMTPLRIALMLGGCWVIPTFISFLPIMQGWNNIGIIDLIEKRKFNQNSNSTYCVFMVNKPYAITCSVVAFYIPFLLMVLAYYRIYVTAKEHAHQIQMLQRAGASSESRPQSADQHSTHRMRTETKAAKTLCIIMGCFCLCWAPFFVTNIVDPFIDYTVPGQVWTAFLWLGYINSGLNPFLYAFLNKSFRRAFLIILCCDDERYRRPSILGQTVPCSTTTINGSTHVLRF
Protocol: The entire coding region of the cDNAs of 5-HT4(a), 5-HT4(b), 5-HT4(c) and 5-T4(d) was subcloned into a mammalian expression vector pRC/CMV (Invitrogen, Carlsbad, Calif.). The transfections were carried out using polyethyleneimine (PEI) as described in Boussif et al. (1995). The cells were transfected using a mixture of DNA and of PEI in a ratio of 20 μmol of PEI/mg of DNA in 0.9% NaCl. For the radioligand binding assays, the COS-7 cells were seeded into culture flasks of 1.5×10^4 mm^2 one day before the transfection, at a density of 1×10^7 cells/flask, incubated for six hours with plasmid DNA (150 μg/flask) and collected 48 hours after transfection. For the measurement of cAMP formation, the COS-7 cells were seeded onto twelve-well plates one day before transfection, at a density of 5×10^5 cells/well, incubated for six hours with plasmid DNA (4 to 8 μg/well according to the experiments) and assayed 24 hours after the transfection. […]
To measure intracellular cAMP accumulation, the transiently transfected COS-7 cells were incubated, 24 hours after transfection, in Dulbecco's modified Eagle medium (DMEM) containing 5 mM theophylline, 10 mM HEPES and 10 μM pargyline for 15 minutes at 37° C., in the presence of 5% CO2. […] The cAMP was quantified in the supernatant using a radioimmunological assay (E.R.I.A. assay kit from Pasteur Diagnostics 79830). […]

With COc1cc(N)c(Cl)cc1C(=O)OCCN1C[C@H](C)C[C@H](C)C1 [ML10375, 2-(cis-3,5-dimethyl-piperidino)ethyl 4-amino-5-chloro-2-methoxybenzoate] as the compound, how does the Ki (receptor 5-HT4(a) [1]) read?
Its Ki is 0.56 ± 0.11 nM.

What about the Ki (receptor 5-HT4(b) [2]) of the same compound?
The Ki was 1.62 ± 0.82 nM.

What about the “effect on the basal cAMP levels” value (receptor 5-HT4(a) [3]) of the same compound?
Its value is “no significant effect”.

And the “effect on the basal cAMP levels” value (receptor 5-HT4(b) [4])?
The value was “no significant effect”.

And the “effect on basal adenylate cyclase activity / basal cAMP levels” value [5]?
The value was “no significant effect”.

And the “antagonism of the capacity of 5-HT (1 μM) to increase basal cAMP levels” value [6]?
Its value is “antagonizes”.

And the “reduction of the basal cAMP levels” value (receptor 5-HT4(d))?
Its value is 24%.
